Measured values from article PMC3389297 (Bioorganic & medicinal chemistry, 2012).
“Also recorded” adds a separate entry of the source.

Tests used:
Type in all cases: biochemical
[1] = target: PTP-β (Homo sapiens, UniProt P23467); experiment: Colorimetric PTP-β assay using p-NPP as substrate; conditions: 5 µM compound; 1 mM p-NPP as substrate
[2] = target: T1, Cdc25a (Homo sapiens, UniProt P30304); experiment: OMFP phosphatase assay, Cdc25a; conditions: for Mode of inhibition of Cdc25a: Michaelis-Menten kinetics, varying inhibitor concentrations; for Reversibility of inhibition of Cdc25a: dilution method: pre-incubation at 4 times IC50, 10-fold dilution
T1 sequence (P30304 376-482 limits assumed): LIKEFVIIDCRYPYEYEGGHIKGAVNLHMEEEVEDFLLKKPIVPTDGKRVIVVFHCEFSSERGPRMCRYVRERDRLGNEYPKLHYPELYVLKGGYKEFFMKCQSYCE

[3] = target: T2, Cdc25b (Homo sapiens, UniProt P30305); experiment: OMFP phosphatase assay, Cdc25b; conditions: for Mode of inhibition of Cdc25b: Michaelis-Menten kinetics, varying inhibitor concentrations; for Reversibility of inhibition of Cdc25b: dilution method: pre-incubation at 4 times IC50, 10-fold dilution
T2 sequence (P30305 431-538 limits assumed): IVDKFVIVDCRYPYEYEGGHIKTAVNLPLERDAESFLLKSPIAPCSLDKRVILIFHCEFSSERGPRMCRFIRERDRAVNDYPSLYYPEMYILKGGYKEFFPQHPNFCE

[4] = target: T3, Cdc25c (Homo sapiens, UniProt P30307); experiment: OMFP phosphatase assay, Cdc25c
T3 sequence (P30307 321-428 limits assumed): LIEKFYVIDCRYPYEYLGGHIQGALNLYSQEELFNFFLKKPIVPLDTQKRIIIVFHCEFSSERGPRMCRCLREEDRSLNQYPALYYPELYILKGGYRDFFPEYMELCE

PTP-β, sequence (P23467 1703-1963 limits assumed): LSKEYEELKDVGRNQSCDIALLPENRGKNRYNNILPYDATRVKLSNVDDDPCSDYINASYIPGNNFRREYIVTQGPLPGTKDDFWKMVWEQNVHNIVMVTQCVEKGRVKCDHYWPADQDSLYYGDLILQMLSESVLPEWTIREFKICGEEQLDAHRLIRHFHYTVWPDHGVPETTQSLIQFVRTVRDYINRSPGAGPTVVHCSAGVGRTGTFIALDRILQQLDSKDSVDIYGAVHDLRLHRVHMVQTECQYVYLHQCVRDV

| Compound | Inhibition of PTP-β [1] | Mode of inhibition of Cdc25a ([2]; OMFP) | Reversibility of inhibition of Cdc25a [2] | Mode of inhibition of Cdc25b ([3]; OMFP) | Reversibility of inhibition of Cdc25b [3] | Effect on activity of Cdc25c ([4]; 10 µM compound) | Potency relative to 13778 for Cdc25a (fold lower) ([2]; OMFP) | Potency relative to 13778 for Cdc25b (fold lower) ([3]; OMFP) | Effect on activity of Cdc25c ([4]; at the concentrations tested) |
| --- | --- | --- | --- | --- | --- | --- | --- | --- | --- |
| [O]=[Sb]([OH])([OH])[c]1ccccc1 [Compound 13744] | does not show any inhibitory effect; also recorded: No inhibition | – | – | – | – | – | – | – | – |
| O=C(O)/C=C/c1ccc[c]([Sb](=[O])([OH])[OH])c1 [Compound 13778, (E)-3-(3-stibonophenyl)acrylic acid] | almost completely inhibiting phosphatase activity | partial mixed-type mode of inhibition | reversible | partial mixed-type mode of inhibition | reversible | not substantially affected | – | – | – |
| O=C(O)CCc1ccc[c]([Sb](=[O])([OH])[OH])c1 [Compound P6949, 3-(3-stibonophenyl)propanoic acid] | almost completely inhibiting phosphatase activity | partial mixed-type mode of inhibition | reversible | partial mixed-type mode of inhibition | reversible | – | ~ 30 fold | ~ 10 fold | not affected |
